Earlier results, collected in patent publication US11571429B2, “Method and compounds for treating peripheral neuropathy” (UPEXMED CO. LTD., priority 2017, dated 2023).

Test system: diabetic neuropathy pain
Settings: taken orally

CN(C)CCC=C1c2ccccc2CCc2ccccc21 [Amitriptyline, amitriptyline]
NNT; number of patients needed to treat for at least 50% pain relief: 1.3
